The text below walks through data of US20250121084A1, “ANTI-CLAUDIN-6 CONJUGATES” (priority 2023, published 2025).

Starred links: 1 amine or outer side, 2 acyl side, 3 side chain; linkers in the order of their positions; H or OH if unused. Non-standard residues stand in square brackets, D forms with d. Residues, ends and D or L forms follow the SMILES beside them. *: point of attachment. Exatecan = CC[C@@]1(O)C(=O)OCc2c1cc1n(c2=O)Cc2c-1nc1cc(F)c(C)c3c1c2[C@@H](N*)CC3; Propanoyl(3-maleimido) = O=C1C=CC(=O)N1CCC(=O)*; PABC = O=C(OCc1ccc(N[*:1])cc1)[*:2]

A short description of data set [1]: Aggregation during conjugation to a test antibody (% monomer by SEC). It is filed as physicochemical. Here is the method:
2 mg of monoclonal antibody GB01 at 8.87 mg/ml was pH adjusted with 5% 0.5 M Tris, 0.025 M EDTA, pH 8.5 and reduced with 2.3 mol. eq. TCEP and then conjugated with 6 mol. eq. drug linker. After buffer exchange into 30 mM Histidine, 175 mM Sucrose pH 6.0/PBS, the drug to antibody ratio (DAR) was by HIC/LC-MS and % Monomer by size exclusion chromatography (SEC). Percentage monomer values of 95% or greater are assessed as low aggregation.
Aggregation levels were assessed during the conjugation to a test antibody. Conjugation was performed as described above for ADC1.
During conjugation, we are ideally targeting a monomer content or percentage monomer of 95% or above. Low percentage monomer values usually translate to a higher degree of aggregation. One could therefore agree that percentage monomer values of 95% or higher mean very low levels of aggregation or none, whereas values below this threshold often translate to higher levels of aggregation.
On the technique in general: In gel filtration, larger molecules generally elute earlier.

Data set [2] can be described thus: RP-HPLC retention time correlated with hydrophobicity. Type of data set: physicochemical. To be noted: high Rt = hydrophobic, low Rt = hydrophilic. Here is the method:
A correlation study was also carried out using Reverse-Phase HPLC (RP-HPLC). The two constructs were injected in RP-HPLC and retention times (Rt) correlated with hydrophobicity—i.e., high Rt was associated to hydrophobic constructs whereas low Rt to hydrophilic ones.

The next data set concerns the target T1, topo I/DNA complex (Homo sapiens, UniProt P11387).
T1 sequence (P11387 1-765): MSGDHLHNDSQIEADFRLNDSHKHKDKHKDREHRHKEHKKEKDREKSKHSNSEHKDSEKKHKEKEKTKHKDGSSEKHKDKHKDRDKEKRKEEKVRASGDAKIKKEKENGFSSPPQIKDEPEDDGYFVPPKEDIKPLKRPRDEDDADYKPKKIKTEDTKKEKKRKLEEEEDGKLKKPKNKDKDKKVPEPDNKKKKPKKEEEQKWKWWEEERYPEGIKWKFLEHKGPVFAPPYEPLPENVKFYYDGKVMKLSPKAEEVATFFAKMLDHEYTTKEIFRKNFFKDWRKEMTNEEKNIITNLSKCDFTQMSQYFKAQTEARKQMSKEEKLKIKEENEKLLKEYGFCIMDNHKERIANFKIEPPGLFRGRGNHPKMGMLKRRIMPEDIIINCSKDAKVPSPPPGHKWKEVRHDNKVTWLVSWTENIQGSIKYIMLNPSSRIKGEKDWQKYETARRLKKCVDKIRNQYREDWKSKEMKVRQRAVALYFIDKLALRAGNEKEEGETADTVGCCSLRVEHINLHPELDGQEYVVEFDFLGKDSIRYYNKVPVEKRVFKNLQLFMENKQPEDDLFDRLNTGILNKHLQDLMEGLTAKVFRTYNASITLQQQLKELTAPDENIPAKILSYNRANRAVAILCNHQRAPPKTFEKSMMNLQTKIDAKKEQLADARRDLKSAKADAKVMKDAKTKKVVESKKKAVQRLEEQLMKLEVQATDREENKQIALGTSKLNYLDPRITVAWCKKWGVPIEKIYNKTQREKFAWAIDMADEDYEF
To be noted: versus SN38 (the active metabolite of irinotecan); cited from earlier work.

In a further data set the test system is a variety of cell lines. To be noted: versus SN38; cited from earlier work.

Take `CC[C@@]1(O)C(=O)OCc2c1cc1n(c2=O)Cc2c-1nc1cc(F)c(C)c3c1c2[C@@H](NC(=O)OCc1ccc(NC(=O)[C@H](C)NC(=O)[C@@H](NC(=O)CNC(=O)CNC(=O)CNC(=O)CNC(=O)CNC(=O)CCN2C(=O)C=CC2=O)C(C)C)cc1)CC3` [Mal-Gly5-VA-PABC-Exatecan] ({Propanoyl(3-maleimido)}-GGGGGVA[PABC]-Exatecan): the Aggregation result in data set [1] is recorded as “None”. In addition, the “Aggregation (% monomer)” value in data set [1] (95% or greater = low aggregation) is 98%. Besides, the “Rt” value in data set [2] was 9.76 min.
Take `CC[C@@]1(O)C(=O)OCc2c1cc1n(c2=O)Cc2c-1nc1cc(F)c(C)c3c1c2[C@@H](N)CC3` [Exatecan]: the “potency relative to SN38 at stabilizing the topo I/DNA complex” value on topo I/DNA complex is “about 2.5 fold”. Besides, the “potency relative to SN38 as a cytotoxin” value with a variety of cell lines was “about 2.5 fold”.
